Laboratory results as given in ChEMBL document CHEMBL6127057, “Design and synthesis of Thieno[3, 2-b]pyridinone derivatives exhibiting potent activities against Mycobacterium tuberculosis in vivo by targeting Enoyl-ACP reductase” (Eur J Med Chem, 2024).
Converted amounts (≈) assume the structure as drawn.

How the values were obtained:
Assay type in all cases: functional
[1] = system: Mycobacterium tuberculosis; assay: Antimycobacterial activity against compound resistant Mycobacterium tuberculosis 16-6B harboring InhA ATC to AGC (150S)
[2] = system: Mycobacterium tuberculosis; assay: Antimycobacterial activity against compound resistant Mycobacterium tuberculosis 16-1B harboring InhA TCG to TTG (S186L)
[3] = system: Mycobacterium tuberculosis; assay: Antimycobacterial activity against compound resistant Mycobacterium tuberculosis 8-8B harboring InhA CTG to GTG (L197V) phenotype
[4] = system: Mycobacterium tuberculosis; assay: Antimycobacterial activity against compound resistant Mycobacterium tuberculosis 16-4B harboring InhA GCC to GAC (A211D) phenotype
[5] = system: Mycobacterium tuberculosis; assay: Selectivity ratio of MIC for compound resistant Mycobacterium tuberculosis 16-6B harboring InhA ATC to AGC (150S) phenotype to MIC for wild-type Mycobacterium tuberculosis H37Rv
[6] = system: Mycobacterium tuberculosis; assay: Selectivity ratio of MIC for compound resistant Mycobacterium tuberculosis 16-1B harboring InhA TCG to TTG (S186L) phenotype to MIC for wild-type Mycobacterium tuberculosis H37Rv
[7] = system: Mycobacterium tuberculosis; assay: Selectivity ratio of MIC for compound resistant Mycobacterium tuberculosis 8-8B harboring InhA CTG to GTG (L197V) phenotype to MIC for wild-type Mycobacterium tuberculosis H37Rv
[8] = system: Mycobacterium tuberculosis; assay: Selectivity ratio of MIC for compound resistant Mycobacterium tuberculosis 16-4B harboring InhA GCC to GAC (A211D) phenotype to MIC for wild-type Mycobacterium tuberculosis H37Rv

Compound `Cc1cccc(-c2c(O)c3scc(Br)c3[nH]c2=O)c1` has an MIC [1] of 16 µg/mL (≈ 47.6 µM), an MIC [2] of 16 µg/mL (≈ 47.6 µM) and an MIC [3] of 32 µg/mL (≈ 95.2 µM). For the same compound, the MIC [4] was greater than 128 µg/mL, the Selectivity ratio [5] was “<=16” and the Selectivity ratio [6] was “<=16”. For the same compound, the Selectivity ratio [7] was “<=16” and the Selectivity ratio [8] was “<=16”.
For `NNC(=O)c1ccncc1` [ISONIAZID], the MIC [1] was 0.063 µg/mL (≈ 0.459 µM), the MIC [2] was 0.063 µg/mL (≈ 0.459 µM) and the MIC [3] was 0.063 µg/mL (≈ 0.459 µM). It also gave an MIC [4] of 0.063 µg/mL (≈ 0.459 µM).
With `CO[C@H]1/C=C/O[C@@]2(C)Oc3c(C)c(O)c4c(O)c(c(/C=N/N5CCN(C)CC5)c(O)c4c3C2=O)NC(=O)/C(C)=C\C=C\[C@H](C)[C@H](O)[C@@H](C)[C@@H](O)[C@@H](C)[C@H](OC(C)=O)[C@@H]1C` [RIFAMPIN] the MIC [1] was 0.063 µg/mL (≈ 0.0766 µM), the MIC [2] was 0.063 µg/mL (≈ 0.0766 µM) and the MIC [3] was 0.063 µg/mL (≈ 0.0766 µM). The MIC [4] was 64 µg/mL (≈ 77.8 µM).
